Results as given in patent EP2948433B1, “ATGLISTATIN AS LIPASE INHIBITOR” (Technische Universität Graz, priority 2013, dated 2014).

Experiments:
[1] = tested on: TG hydrolase activity of wild-type WAT; assay: TG hydrolase activity in WAT lysates of wild-type mice; format: biochemical; conditions: up to, at a concentration of 40 µM
Description: For determination of lipase activity, lysates of E. coli overexpressing recombinant strep-tagged ATGL and CGI-58 were incubated with a substrate containing radiolabeled [9,10-3H(N)]-triolein. Subsequently, FA were extracted and quantified by liquid scintillation counting. Lysates of cells expressing empty vector were set as blank. Inhibitors were solubilized in DMSO and added at the indicated concentrations. DMSO alone was used as negative control. […] Data are presented as mean +/-S.D. of triplicate determinations. […] Lipase activity of ATGL, HSL, lipoprotein lipase, and pancreatic lipase was determined using triolein as substrate. MGL activity was detected in the presence of rac-(1,3)-monooleoylglycerol as substrate. Inhibitors were solubilized in DMSO and added at the indicated concentrations. DMSO alone was used as negative control. (A) Dose-dependent inhibition of TG hydrolase activity in WAT lysates obtained from wild-type and ATGL-ko mice.

[2] = target: T1, murine MGL (Mus musculus, UniProt O35678); assay: MG hydrolase activity, purified MGL, rac-1-(3)-oleoylglycerol substrate; format: biochemical; conditions: Fig. 2C
T1 construct: made in house; host or cells: E. coli, purified
T1 sequence (O35678 1-303): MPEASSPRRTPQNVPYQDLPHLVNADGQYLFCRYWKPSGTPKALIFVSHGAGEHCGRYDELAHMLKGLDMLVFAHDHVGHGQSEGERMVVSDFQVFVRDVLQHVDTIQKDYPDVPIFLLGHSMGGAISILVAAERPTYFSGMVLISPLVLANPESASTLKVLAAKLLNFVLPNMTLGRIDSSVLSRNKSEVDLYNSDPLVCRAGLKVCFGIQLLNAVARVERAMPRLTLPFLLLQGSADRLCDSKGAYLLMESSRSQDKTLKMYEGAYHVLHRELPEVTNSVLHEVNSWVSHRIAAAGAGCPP
Description: (§1) • Figure 1. Structure of compounds 1 to 3 (reference) and compound 4 (atglistatin) and effect on ATGL activity. For determination of lipase activity, lysates of E. coli overexpressing recombinant strep-tagged ATGL and CGI-58 were incubated with a substrate containing radiolabeled [9,10-3H(N)]-triolein. Subsequently, FA were extracted and quantified by liquid scintillation counting. Lysates of cells expressing empty vector were set as blank. Inhibitors were solubilized in DMSO and added at the indicated concentrations. DMSO alone was used as negative control. (A) Structure and IC50 values of compounds 1-4. (B) Dose-dependent inhibition of ATGL in the presence of compound 3 and 4. […] (C) Lineweaver-Burk plots for kinetic analysis of ATGL inhibition. Experiments were performed at varying concentrations of substrate (0.05 - 3 mM) in presence and absence of compound 4 (Atglistatin). […] Lipase activity of ATGL, HSL, lipoprotein lipase, and pancreatic lipase was determined using triolein as substrate. MGL activity was detected in the presence of rac-(1,3)-monooleoylglycerol as substrate. […] The release of FA (A) and glycerol (B) in the media was determined using commercial kits. […] At the indicated timepoints blood was taken retroorbitally and plasma parameters were measured using commercial kits. […] 8 h after gavage blood was taken retroorbitally and plasma parameters were measured using commercial kits. […]

[3] = tested on: 3T3-L1 adipocytes; assay: Forskolin-stimulated lipolysis of differentiated 3T3-L1 adipocytes; format: cell-based, mouse; conditions: 10 µM forskolin-stimulated, dose dependent (0-50 µM)
Description: as §1

[4] = tested on: AML-12 mouse hepatocytes; assay: MTT-based in vitro viability (toxicity) test; format: cell-based; conditions: at concentrations ≥100 µM
Description: Toxicity test for Atglistatin in AML-12 mouse hepatocytes. For MTT-based in vitro viability assays, cells were seeded at an initial density of 1x10^4 cells per well in 96-well plates and cultured under standard conditions for twenty-four hours. The next day, cells were pretreated with different concentrations of Atglistatin dissolved in DMSO or Cisplatin dissolved in dimethylformamide (DMF) (Sigma-Aldrich) as positive control for two hours. Medium was replaced by an identical fresh medium and incubated again for the indicated timepoints. Thereafter cells were incubated for 3 hours with 100 µl Thiazolyl Blue Tetrazolium Bromide (MTT). The resulting violet formazan crystals were dissolved by adding 100 µl of MTT Solubilization Solution (0.1% NP-40, 4 mM HCl and anhydrous isopropanol). After complete dissolution of the formazan product, absorbance was measured at 595 nm and 690 nm. The values obtained at 690 nm were subtracted from the 595 nm measurements.

Compound: CN(C)C(=O)Nc1cccc(-c2ccc(N(C)C)cc2)c1 [Atglistatin, atglistatin]
- inhibition of TG hydrolase activity of wild-type WAT [1]: up to 78%
- effect on MGL activity [2]: only minor effects
- inhibition of FA release [3]: almost complete inhibition
- inhibition of glycerol release [3]: ~90%
- cell viability (cytotoxicity assays) [4]: only a very moderate decrease in cell viability
